Test results published in patent publication US11306063B2, “Heterocyclic naphthoquinones derivatives for use in the treatment of cancers including Cushing disease” (Commissariat a l'Energie Atomique et aux Energies …, priority 2016, dated 2022).

Assays:
Assay type in all cases: biochemical
[1] = molecular target: T1, USP2 full length (USP2^FL) (Homo sapiens, UniProt O75604); assay: Inhibition of Ub-AMC hydrolysis by USP2 full length; conditions: Ub-AMC at 1 μM, Table 1a; for inhibition at 1 µM: 1 μM compound; for inhibition at 5 µM: 5 μM compound; for inhibition at 25 µM: 25 μM compound; for inhibition at 50 µM: 50 μM compound
T1 construct: purchased BioSciences 80352
T1 sequence (O75604 1-605): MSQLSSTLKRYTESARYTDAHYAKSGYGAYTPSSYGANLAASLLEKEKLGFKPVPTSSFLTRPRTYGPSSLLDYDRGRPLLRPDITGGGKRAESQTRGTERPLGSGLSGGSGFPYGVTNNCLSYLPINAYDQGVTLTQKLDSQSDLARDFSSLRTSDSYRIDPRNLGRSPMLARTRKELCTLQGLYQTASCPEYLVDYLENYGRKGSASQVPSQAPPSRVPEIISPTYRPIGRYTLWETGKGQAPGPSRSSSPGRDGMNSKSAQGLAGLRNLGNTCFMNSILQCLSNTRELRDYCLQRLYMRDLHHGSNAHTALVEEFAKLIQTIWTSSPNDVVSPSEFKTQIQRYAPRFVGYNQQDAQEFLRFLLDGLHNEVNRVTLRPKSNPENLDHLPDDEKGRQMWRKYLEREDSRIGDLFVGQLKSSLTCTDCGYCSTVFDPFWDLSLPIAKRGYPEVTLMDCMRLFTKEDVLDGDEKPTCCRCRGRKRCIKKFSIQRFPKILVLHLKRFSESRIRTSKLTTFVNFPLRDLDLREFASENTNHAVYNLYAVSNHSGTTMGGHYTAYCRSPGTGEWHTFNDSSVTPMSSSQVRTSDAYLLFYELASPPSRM
Description: (§1) Enzymatic assay was performed in a HEPES buffer (50 mM pH7.6 1 mM DTT, 2% glycerol, 0.5 mM EDTA) or in a Tris buffer (40 mM pH7.4 1 mM DTT, 5% glycerol, 0.05 mg/ml BSA) respectively, following manufacturer's instructions. Compounds were added to the reaction mixture just prior to the substrate. The enzymatic reaction kinetics was monitored through the apparition of fluorescence due to the hydrolysis of the peptidyl Ub-AMC or Ub-Rho bound over 20 or 30 minutes.

[2] = molecular target: T2, USP8^CD (purified catalytic domain of USP8) (Homo sapiens, UniProt P40818); assay: Inhibition of purified USP8^CD enzymatic activity (Ub-AMC or Ub-Rho substrate); conditions: for USP8^CD % inhibition / inhibition at 1 µM: Ub-AMC at 1 μM, Table 1a; for inhibition at 1 µM: 1 μM compound
T2 construct: the purified catalytic domain of USP8 (USP8^CD, in-house purified); made in house; host or cells: E. coli BL21 Gold
T2 sequence (P40818 777-1109 limits assumed): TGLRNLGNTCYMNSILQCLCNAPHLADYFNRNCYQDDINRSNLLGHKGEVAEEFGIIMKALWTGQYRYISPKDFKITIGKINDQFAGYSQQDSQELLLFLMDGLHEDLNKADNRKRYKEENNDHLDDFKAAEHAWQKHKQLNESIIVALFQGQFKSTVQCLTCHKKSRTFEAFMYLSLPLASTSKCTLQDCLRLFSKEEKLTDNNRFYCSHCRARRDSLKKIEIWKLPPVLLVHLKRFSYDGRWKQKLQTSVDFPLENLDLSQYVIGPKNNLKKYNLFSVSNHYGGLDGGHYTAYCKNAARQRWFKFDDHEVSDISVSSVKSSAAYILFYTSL
Description: (§2) USP2CD or USP8CD were expressed in E. coli BL21 Gold. Cells were grown in LB Miller to mid-log phase and induced by addition of 0.5 mM IPTG for USP2CD for 5 h at 20° C., while 1 mM IPTG was added for USP8CD for 3 h at 37° C. Then, cells were harvested and frozen at −80° C.
For His-tagged USP8CD, cells were resuspended in buffer A (50 mM TRIS pH 8.0, 500 mM NaCl, 2 mM Imidazole) and lysed using a sonicator. The lysate was clarified by centrifugation and applied to Ni Sepharose6 Fast Flow resin (GE Healthcare). The resin was sequentially washed first with buffer A containing 10 mM Imidazole then with buffer A containing 20 mM Imidazole, and finally with buffer A containing 50 mM Imidazole. Protein sample was eluted from the resin using buffer A containing 300 mM Imidazole. The eluted protein was buffer exchanged by gel-filtration on a Superdex 200 10/300 GL column (GE Healthcare) equilibrated in Buffer B (20 mM HEPES pH 7.5, 300 mM NaCl, 2 mM dithiothreitol (DTT)).
as §1
(§3) Medium value out of duplicates is reported.

[3] = molecular target: T3, USP2^CD (purified catalytic domain of USP2) (Homo sapiens, UniProt O75604); assay: Inhibition of purified USP2^CD enzymatic activity (Ub-AMC or Ub-Rho substrate); conditions: Ub-Rhodamine substrate; Table 2a; read-out: IC50 against purified USP2^CD
T3 construct: The purified catalytic domain of USP2 (USP2^CD, in-house purified); His; made in house; host or cells: E. coli BL21 Gold
T3 sequence (O75604 267-599 limits assumed): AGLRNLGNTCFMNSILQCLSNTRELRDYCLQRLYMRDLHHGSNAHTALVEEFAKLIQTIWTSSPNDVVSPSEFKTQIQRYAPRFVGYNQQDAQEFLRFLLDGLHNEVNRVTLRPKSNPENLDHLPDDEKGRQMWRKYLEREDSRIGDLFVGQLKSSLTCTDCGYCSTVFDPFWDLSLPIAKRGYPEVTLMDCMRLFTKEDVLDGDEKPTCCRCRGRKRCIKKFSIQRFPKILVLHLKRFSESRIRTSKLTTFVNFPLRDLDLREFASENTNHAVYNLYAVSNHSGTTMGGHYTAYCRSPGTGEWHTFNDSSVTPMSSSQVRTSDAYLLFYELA
Description: as §2
For His-tagged USP2CD, cells were resuspended in buffer C (10 mM TRIS pH 8.0, 100 mM NaCl, 10 mM Imidazole) and lysed using a sonicator. The lysate was clarified by centrifugation and applied to Ni Sepharose6 Fast Flow resin (GE Healthcare). The resin was sequentially washed with buffer C, then with buffer C containing 50 mM Imidazole. Protein sample was eluted from the resin using buffer C containing 250 mM Imidazole. The eluted protein was buffer exchanged by gel-filtration on a Superdex 200 10/300 GL column (GE Healthcare) equilibrated in Buffer D (15 mM Bis-TRIS pH 6.0, 100 mM NaCl, 1 mM dithiothreitol (DTT)).
as §1, §3

| Compound | inhibition at 1 µM [1] [%] | inhibition at 5 µM [1] [%] | inhibition at 25 µM [1] [%] | inhibition at 50 µM [1] [%] | USP8^CD % inhibition ([2]; 0.1 μM compound) [%] | USP8^CD % inhibition ([2]; 0.5 μM compound) [%] | inhibition at 1 µM [2] [%] | USP8^CD % inhibition ([2]; 5 μM compound) [%] | USP8^CD % inhibition ([2]; 25 μM compound) [%] | USP8^CD % inhibition ([2]; 50 μM compound) [%] | IC50 [3] [nM] | IC50 ([2]; Ub-Rhodamine substrate, Table 2a, read-out: IC50 against purified USP8^CD) [nM] |
| --- | --- | --- | --- | --- | --- | --- | --- | --- | --- | --- | --- | --- |
| Cc1ccc(S(=O)(=O)Cc2nc3c(nc2CS(=O)(=O)c2ccc(C)cc2)C(=O)c2ccccc2C3=O)cc1 [PCR7985] | 33 | 49 | 59 | 95 | 1 | 20 | 55 | 23 | 61 | 98 |  |  |
| O=C1c2ccccc2C(=O)c2nc(CS(=O)(=O)c3ccccc3)c(CS(=O)(=O)c3ccccc3)nc21 [PCR7986] | 46 | 74 | 78 | 92 | 1 | 13 |  |  |  | 36 |  |  |

The next lines start with the values.

| inhibition at 1 µM [1] [%] | inhibition at 5 µM [1] [%] | inhibition at 25 µM [1] [%] | inhibition at 50 µM [1] [%] | USP8^CD % inhibition ([2]; 0.1 μM compound) [%] | USP8^CD % inhibition ([2]; 0.5 μM compound) [%] | inhibition at 1 µM [2] [%] | USP8^CD % inhibition ([2]; 5 μM compound) [%] | USP8^CD % inhibition ([2]; 25 μM compound) [%] | USP8^CD % inhibition ([2]; 50 μM compound) [%] | IC50 [3] [nM] | IC50 ([2]; Ub-Rhodamine substrate, Table 2a, read-out: IC50 against purified USP8^CD) [nM] | Compound |
| --- | --- | --- | --- | --- | --- | --- | --- | --- | --- | --- | --- | --- |
| 46 | 79 | 94 | 93 | 42 | 97 | 98 |  |  |  | 1700 | 50 | O=C1c2ccccc2C(=O)c2nc(CS(=O)(=O)c3ccc([N+](=O)[O-])cc3)c(CS(=O)(=O)c3ccc([N+](=O)[O-])cc3)nc21 [PCR7991] |
| 29 | 59 | 58 | 98 | 0 | 16 | 34 | 22 | 101 | 102 |  |  | O=C1c2ccccc2C(=O)c2nc(CS(=O)(=O)c3ccc(F)cc3)c(CS(=O)(=O)c3ccc(F)cc3)nc21 [PCR7993] |
| 25 | 51 | 85 | 95 |  |  | 10 | 70 | 100 | 100 |  |  | Cc1cc(C)c(S(=O)(=O)Cc2nc3c(nc2CS(=O)(=O)c2c(C)cc(C)cc2C)C(=O)c2ccccc2C3=O)c(C)c1 [PCR7996] |
